Experimental findings from patent publication US10233177B2, “TRPV1 vanilloid receptor antagonists with a bicyclic portion” (Serentrix LLC, priority 2010, dated 2019) are described below.

pIC50: −log10 of the molar value. Read-outs that look alike come from different tables or passages of the source.

The target of this experiment is TRPV1 (Rattus norvegicus (Rat), UniProt O35433). As to the kind of experiment: Ca2+ fluorescence measurements in cultured rat dorsal root ganglia neurons (capsaicin-induced calcium uptake). It counts as cell-based. The following applies: rat DRG neurons; for inhibition at 0.3 µM: DRG neuron.
The mark [1] stands for this setting: 300 nM, read-out: abolition of capsaicin response at 300 nM.
The mark [2] stands for this setting: Table 1, formula IA-C, 300 nM against calcium uptake induced by 30 nM capsaicin, read-out: % inhibition at 300 nM.
Setting [3] is: capsaicin-induced calcium uptake, read-out: inhibition of the calcium uptake.
Where [4] appears, read: Table 2, formula ID-E, 300 nM against calcium uptake induced by 30 nM capsaicin, read-out: % inhibition at 300 nM.
Where [5] appears, read: Table 3, formula IF-H, 300 nM against calcium uptake induced by 30 nM capsaicin, read-out: % inhibition at 300 nM.

Chain of TRPV1 (O35433 whole entry): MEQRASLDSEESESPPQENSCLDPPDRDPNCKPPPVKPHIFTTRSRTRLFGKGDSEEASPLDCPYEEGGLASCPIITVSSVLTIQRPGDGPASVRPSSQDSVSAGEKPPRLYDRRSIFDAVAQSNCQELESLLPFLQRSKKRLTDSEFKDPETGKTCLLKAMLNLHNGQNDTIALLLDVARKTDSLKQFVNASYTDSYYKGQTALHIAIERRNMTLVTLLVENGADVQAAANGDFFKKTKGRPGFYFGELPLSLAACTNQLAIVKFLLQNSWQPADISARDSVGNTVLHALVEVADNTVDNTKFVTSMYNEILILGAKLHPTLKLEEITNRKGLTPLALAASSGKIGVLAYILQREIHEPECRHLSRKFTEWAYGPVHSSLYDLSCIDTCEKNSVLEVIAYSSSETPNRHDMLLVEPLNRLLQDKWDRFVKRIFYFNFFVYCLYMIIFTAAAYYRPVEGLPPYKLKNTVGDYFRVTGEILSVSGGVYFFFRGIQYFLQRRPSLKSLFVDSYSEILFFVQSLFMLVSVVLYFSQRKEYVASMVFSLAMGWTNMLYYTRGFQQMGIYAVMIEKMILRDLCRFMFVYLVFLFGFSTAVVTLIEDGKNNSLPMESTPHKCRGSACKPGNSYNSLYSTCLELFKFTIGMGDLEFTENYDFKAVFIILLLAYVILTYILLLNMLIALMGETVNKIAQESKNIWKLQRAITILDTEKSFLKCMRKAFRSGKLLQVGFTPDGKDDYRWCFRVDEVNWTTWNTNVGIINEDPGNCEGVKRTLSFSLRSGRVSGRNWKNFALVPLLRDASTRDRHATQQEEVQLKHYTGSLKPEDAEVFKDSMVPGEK

As for `Cc1ccc(CNC(=O)Nc2cccc3[nH]c(=O)[nH]c23)c(N2CCCCC2)c1` [Example 19, 1-(4-methyl-2-(piperidin-1-yl)benzyl)-3-(2,3-dihydro-2-oxo-1H-benzo[d]imidazol-4-yl)urea], the inhibition at 0.3 µM under setting [1] is ~100%, the inhibition at 0.3 µM under setting [2] came to 99% and the inhibition at 0.3 µM under setting [3] was > 80%.

With `O=C(NCc1ccncc1)Nc1cccc2[nH]c(=O)[nH]c12` [Example 20, 1-(2,3-dihydro-2-oxo-1H-benzo[d]imidazol-4-yl)-3-((pyridin-4-yl)methyl)urea], the inhibition at 0.3 µM under setting [2] was 18%.

For `O=C(NCc1ccc(Cl)nc1)Nc1cccc2[nH]c(=O)[nH]c12` [Example 21, 1-((6-chloropyridin-3-yl)methyl)-3-(2,3-dihydro-2-oxo-1H-benzo[d]imidazol-4-yl)urea], under setting [2], the inhibition at 0.3 µM was 79%.

With `O=C(NCc1ccc(Cl)cc1N1CCC(O)C1)Nc1cccc2[nH]c(=O)[nH]c12` (stereo not drawn) [Example 22, 1-(4-chloro-2-(3-hydroxypyrrolidin-1-yl)benzyl)-3-(2,3-dihydro-2-oxo-1H-benzo[d]imidazol-4-yl)urea], the inhibition at 0.3 µM under setting [2] was 48%.

As for `O=C(NCc1ccc(C(F)(F)F)cc1)Nc1cccc2oc(=O)[nH]c12` [Example 24, 1-(4-(trifluoromethyl)benzyl)-3-(2,3-dihydro-2-oxobenzo[d]oxazol-4-yl)urea], the inhibition at 0.3 µM under setting [2] was 40%.

Take `O=C(NCc1ccc(C(F)(F)F)cc1F)Nc1cccc2oc(=O)[nH]c12` [Example 25, 1-(2-fluoro-4-(trifluoromethyl)benzyl)-3-(2,3-dihydro-2-oxobenzo[d]oxazol-4-yl)urea]: the inhibition at 0.3 µM under setting [2] was found to be 40%.

`O=C(NCc1ccc(C(F)(F)F)cc1Cl)Nc1cccc2oc(=O)[nH]c12` [Example 26, 1-(2-chloro-4-(trifluoromethyl)benzyl)-3-(2,3-dihydro-2-oxobenzo[d]oxazol-4-yl)urea]: the inhibition at 0.3 µM under setting [2] was found to be 55%.

`O=C(NCc1ccc(F)cc1C(F)(F)F)Nc1cccc2oc(=O)[nH]c12` [Example 27, 1-(4-fluoro-2-(trifluoromethyl)benzyl)-3-(2,3-dihydro-2-oxobenzo[d]oxazol-4-yl)urea]: the inhibition at 0.3 µM under setting [2] is 45%.

Take `O=C(NCc1ccc(Cl)cc1C(F)(F)F)Nc1cccc2oc(=O)[nH]c12` [Example 28, 1-(4-chloro-2-(trifluoromethyl)benzyl)-3-(2,3-dihydro-2-oxobenzo[d]oxazol-4-yl)urea]: under setting [2], the inhibition at 0.3 µM is 40%.

Consider `CN(C)c1cc(C(F)(F)F)ccc1CNC(=O)Nc1cccc2oc(=O)[nH]c12` [Example 29, 1-(2-(dimethylamino)-4-(trifluoromethyl)benzyl)-3-(2,3-dihydro-2-oxobenzo[d]oxazol-4-yl)urea], for which the inhibition at 0.3 µM under setting [2] was determined as 8%.

Take `O=C(NCc1ccc(C(F)(F)F)cc1N1CCCC1)Nc1cccc2oc(=O)[nH]c12` [Example 30, 1-(4-(trifluoromethyl)-2-(pyrrolidin-1-yl)benzyl)-3-(2,3-dihydro-2-oxobenzo[d]oxazol-4-yl)urea]: the inhibition at 0.3 µM under setting [2] came to 44%.

On to `O=C(NCc1ccc(C(F)(F)F)cc1N1CCOCC1)Nc1cccc2oc(=O)[nH]c12` [Example 32, 1-(4-(trifluoromethyl)-2-(4-morpholino)benzyl)-3-(2,3-dihydro-2-oxobenzo[d]oxazol-4-yl)urea], for which the inhibition at 0.3 µM runs as follows: under setting [2], 93%; under setting [3], > 80%.

For `O=C(NCc1ccc(Cl)cc1)Nc1cccc2oc(=O)[nH]c12` [Example 33, 1-(4-chlorobenzyl)-3-(2,3-dihydro-2-oxobenzo[d]oxazol-4-yl)urea], the inhibition at 0.3 µM under setting [2] was determined as 16%.

Consider `O=C(NCc1ccc(C(F)(F)F)cc1)Nc1cccc2[nH]c(=O)oc12` [Example 34, 1-(4-(trifluoromethyl)benzyl)-3-(2,3-dihydro-2-oxobenzo[d]oxazol-7-yl)urea], for which the inhibition at 0.3 µM under setting [2] came out at 19%.

On to `O=C(NCc1ccc(C(F)(F)F)cc1N1CCCC1)Nc1cccc2[nH]c(=O)oc12` [Example 35, 1-(4-(trifluoromethyl)-2-(pyrrolidin-1-yl)benzyl)-3-(2,3-dihydro-2-oxobenzo[d]oxazol-7-yl)urea], for which the inhibition at 0.3 µM is 90% under setting [2] and > 80% under setting [3].

As to `O=C(NCc1ccc(C(F)(F)F)cc1N1CCCCC1)Nc1cccc2[nH]c(=O)oc12` [Example 36, 1-(4-(trifluoromethyl)-2-(piperidin-1-yl)benzyl)-3-(2,3-dihydro-2-oxobenzo[d]oxazol-7-yl)urea], the inhibition at 0.3 µM is ~100% under setting [1], 100% under setting [2] and > 80% under setting [3].

On to `O=C(NCc1ccc(C(F)(F)F)nc1N1CCCC1)Nc1cccc2[nH]c(=O)[nH]c12` [Example 39, 1-(2-oxo-1,3-dihydrobenzimidazol-4-yl)-3-[[2-pyrrolidin-1-yl-6-(trifluoromethyl)-3-pyridyl]methyl]urea], for which the “abolition of capsaicin response at 300 nM” value (300 nM) is recorded as “around 100%”. The “% inhibition at 300 nM” value (Table 1, formula IA-C, 300 nM against calcium uptake induced by 30 nM capsaicin) was determined as 98%. Also, the negative-log IC50 (pIC50) (Table 1, against capsaicin-evoked [Ca2+]i mobilization, read-out: IC50) is 8.02. For the same compound, the “inhibition of the calcium uptake” value (capsaicin-induced calcium uptake) was “more than 80%”.

On to `Cc1ccc(CNC(=O)Nc2cccc3[nH]c(=O)[nH]c23)c(N2CCCCC2)n1` [Example 40, 1-[[6-methyl-2-(1-piperidyl)-3-pyridyl]methyl]-3-(2-oxo-1,3-dihydrobenzimidazol-4-yl)urea], for which, under setting [2], the inhibition at 0.3 µM came out at 52%.

`O=C(NCc1ccc(C(F)(F)F)cn1)Nc1cccc2[nH]c(=O)[nH]c12` [Example 41, 1-(2-oxo-1,3-dihydrobenzimidazol-4-yl)-3-[[5-(trifluoromethyl)-2-pyridyl]methyl]urea]: the inhibition at 0.3 µM is 88% under setting [2] and > 80% under setting [3].

Take `O=C1COc2cccc(NC(=O)NCc3ccc(C(F)(F)F)cc3)c2N1` [Example 42, 1-(4-(trifluoromethyl)benzyl)-3-(3,4-dihydro-3-oxo-2H-benzo[b][1,4]oxazin-5-yl)urea]: the inhibition at 0.3 µM under setting [2] came to 30%.

`O=C1COc2cccc(NC(=O)NCc3ccc(C(F)(F)F)cc3N3CCCC3)c2N1` [Example 43, 1-(4-(trifluoromethyl)-2-(pyrrolidin-1-yl)benzyl)-3-(3,4-dihydro-3-oxo-2H-benzo[b][1,4]oxazin-5-yl)urea]: under setting [2], the inhibition at 0.3 µM was 23%.

On to `O=C1COc2cccc(NC(=O)NCc3ccc(C(F)(F)F)cc3N3CCCCC3)c2N1` [Example 44, 1-(4-(trifluoromethyl)-2-(piperidin-1-yl)benzyl)-3-(3,4-dihydro-3-oxo-2H-benzo[b][1,4]oxazin-5-yl)urea], for which the inhibition at 0.3 µM under setting [2] turned out to be 47%.

As to `O=C1COc2c(cccc2NC(=O)NCc2ccc(C(F)(F)F)cc2)N1` [Example 45, 1-(4-(trifluoromethyl)benzyl)-3-(3,4-dihydro-3-oxo-2H-benzo[b][1,4]oxazin-8-yl)urea], the inhibition at 0.3 µM reads like this: under setting [1], ~100%; under setting [2], 100%; under setting [3], > 80%.

For the compound `CN(C)c1cc(Cl)ccc1CNC(=O)Nc1cccc2c1OCC(=O)N2` [Example 50, 1-(4-chloro-2-(dimethylamino)benzyl)-3-(3,4-dihydro-3-oxo-2H-benzo[b][1,4]oxazin-8-yl)urea], the inhibition at 0.3 µM under setting [2] came out at 52%.

As for `O=C1COc2c(cccc2NC(=O)NCc2ccc(Cl)cc2N2CCCCC2)N1` [Example 52, 1-(4-chloro-2-(piperidin-1-yl)benzyl)-3-(3,4-dihydro-3-oxo-2H-benzo[b][1,4]oxazin-8-yl)urea], the inhibition at 0.3 µM under setting [1] is ~100% and the inhibition at 0.3 µM under setting [2] turned out to be 98%.

For the compound `Cc1ccc(CNC(=O)Nc2cccc3c2OCC(=O)N3)c(N2CCCCC2)c1` [Example 53, 1-(4-methyl-2-(piperidin-1-yl)benzyl)-3-(3,4-dihydro-3-oxo-2H-benzo[b][1,4]oxazin-8-yl)urea], the inhibition at 0.3 µM is ~100% under setting [1], 90% under setting [2] and > 80% under setting [3].

In the case of `O=C1COc2c(cccc2NC(=O)NCc2ccc(Cl)nc2)N1` [Example 54, 1-((6-chloropyridin-3-yl)methyl)-3-(3,4-dihydro-3-oxo-2H-benzo[b][1,4]oxazin-8-yl)urea], the inhibition at 0.3 µM under setting [2] worked out at 55%.

Turning to `O=C(Cc1ccc(C(F)(F)F)cc1)Nc1cccc2[nH]c(=O)[nH]c12` [Example 55, 2-(4-(trifluoromethyl)phenyl)-N-(2,3-dihydro-2-oxo-1H-benzo[d]imidazol-4-yl)acetamide], the inhibition at 0.3 µM under setting [4] came to 10%.

Regarding `O=C(Cc1ccc(C(F)(F)F)cc1)Nc1cccc2oc(=O)[nH]c12` [Example 56, 2-(4-(trifluoromethyl)phenyl)-N-(2,3-dihydro-2-oxobenzo[d]oxazol-4-yl)acetamide], the inhibition at 0.3 µM under setting [4] stood at 31%.

For `O=C(Cc1ccc(C(F)(F)F)cc1)Nc1cccc2[nH]c(=O)oc12` [Example 57, 2-(4-(trifluoromethyl)phenyl)-N-(2,3-dihydro-2-oxobenzo[d]oxazol-7-yl)acetamide], the inhibition at 0.3 µM under setting [4] amounted to 7%.

On to `O=C(Cc1ccc(C(F)(F)F)cc1)Nc1cccc2c1NC(=O)CO2` [Example 58, 2-(4-(trifluoromethyl)phenyl)-N-(3,4-dihydro-3-oxo-2H-benzo[b][1,4]oxazin-5-yl)acetamide], for which, under setting [4], the inhibition at 0.3 µM is 43%.

For the compound `O=C(NCc1ccc(C(F)(F)F)cc1)c1cccc2oc(=O)[nH]c12` [Example 59, N-(4-(trifluoromethyl)benzyl)-2,3-dihydro-2-oxobenzo[d]oxazole-4-carboxamide], the inhibition at 0.3 µM under setting [5] came to 5%.

For `O=C(NCc1ccc(C(F)(F)F)cc1N1CCCCC1)c1cccc2oc(=O)[nH]c12` [Example 60, N-(4-(trifluoromethyl)-2-(piperidin-1-yl)benzyl)-2,3-dihydro-2-oxobenzo[d]oxazole-4-carboxamide], the inhibition at 0.3 µM under setting [5] was 8%.
